Values quoted from earlier work as cited in patent EP0700285B1, “A DRUG DELIVERY COMPOSITION FOR ALPHA-ADRENO RECEPTOR BLOCKING AGENTS” (SYNTHELABO, priority 1993, dated 1994).

plasma elimination half life (mean) (after intravenous administration): 4.8 h
mean half life (after oral administration): 4.8 h
mean oral bioavailability (immediate release dosage form): 64%
parent compound excreted unchanged in the urine (in vivo): 11%
volume of distribution (in vivo): 2.5 L/kg
Compound: COc1cc2nc(N(C)CCCNC(=O)C3CCCO3)nc(N)c2cc1OC (centres unmarked) [alfuzosin]
